Results on 1 compound are retold here after article PMC9385719, “Cryo-EM structures of the channelrhodopsin ChRmine in lipid nanodiscs” (Nature Communications, 2022).

The assay deals with T1, ChRmine (Rhodomonas lens, UniProt Z9FJ57BNO3).
T1 construct: residues 1-309 of R. lens cation channelrhodopsin 1; C-terminal PreScission site-linker-sfGFP-7xHis, cleaved; expressed in Sf9; no N-terminal tag, Met1 removed, Ala2 acetylated; residues 2-285 modeled; homotrimer in MSP1E3D1 nanodiscs
T1 sequence (Z9FJ57BNO3 2-309): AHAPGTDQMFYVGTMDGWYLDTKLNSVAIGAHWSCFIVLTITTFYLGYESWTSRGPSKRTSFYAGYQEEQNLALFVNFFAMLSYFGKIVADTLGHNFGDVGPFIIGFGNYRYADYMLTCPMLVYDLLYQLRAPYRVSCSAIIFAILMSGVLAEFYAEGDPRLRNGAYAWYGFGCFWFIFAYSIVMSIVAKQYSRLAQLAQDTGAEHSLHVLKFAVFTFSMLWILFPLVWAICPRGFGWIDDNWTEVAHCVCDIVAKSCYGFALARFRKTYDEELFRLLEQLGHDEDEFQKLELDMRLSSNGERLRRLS
Description: cryo-EM structure, […] Å, lipid nanodisc. The note with it: covalent; Schiff base to K257; MSP1E3D1 nanodisc with DOPE/POPS/POPC, pH 7.5; 5 µM all-trans retinal added to expression culture; small and large nanodisc forms. It counts as binding.

As for `CC1=C(/C=C/C(C)=C/C=C/C(C)=C/C=O)C(C)(C)CCC1` [all-trans retinal], the “cryo-EM structure, 2.7 Å, lipid nanodisc” value is recorded as “(K257) on TM7 is covalently linked to a molecule of all-trans retinal through a Schiff base”.
